Results as given in patent US6472391B2, “Nitrogen-containing heterocyclic compounds” (Millennium Pharmaceuticals, Inc., priority 1996, dated 2002).

Row | SMILES | melting point [°C]
1 | COc1cc2ncnc(N3CCN(C(=S)NCc4ccccc4)CC3)c2cc1OS(C)(=O)=O [Compound 351, N-Benzyl-4-(6-mesyloxy-7-methoxy-4-quinazolinyl)-1-piperazinethiocarboxamide] | 76 to 80
2 | CCOc1cc2ncnc(N3CCN(C(=O)Nc4ccc(C#N)cc4)CC3)c2cc1OCC [Compound 352, N-(4-Cyanophenyl)-4-(6,7-diethoxy-4-quinazolinyl)-1-piperazinecarboxamide] | 186 to 187
3 | CCOc1cc2ncnc(N3CCN(C(=S)NCc4ccccc4)CC3)c2cc1OCC [Compound 353, N-Benzyl-4-(6,7-diethoxy-4-quinazolinyl)-1-piperazinethiocarboxamide] | 134 to 136
4 | CCOc1cc2ncnc(N3CCN(C(=S)NCc4cccnc4)CC3)c2cc1OCC [Compound 354, 4-(6,7-Diethoxy-4-quinazolinyl)-N-(3-picolyl)-1-piperazinethiocarboxamide] | 90 to 92
5 | O=C(Nc1ccc(Oc2ccccc2)cc1)N1CCN(c2ncnc3cc(OCc4ccccc4)c(OCc4ccccc4)cc23)CC1 [Compound 355, 4-(6,7-Dibenzyloxy-4-quinazolinyl)-N-(4-phenoxyphenyl)-1-piperazinecarboxamide] | 137 to 138
6 | O=[N+]([O-])c1cc2c(N3CCN(C(=S)NCc4ccccc4)CC3)ncnc2cc1Cl [Compound 358, N-Benzyl-4-(7-chloro-6-nitro-4-quinazolinyl)-1-piperazinethiocarboxamide] | 93 to 95
7 | O=C(Nc1ccc(Oc2ccccc2)cc1)N1CCN(c2ncnc3cc4ccccc4cc23)CC1 [Compound 363, 4-(4-Benzo[g]quinazolinyl)-N-(4-phenoxyphenyl)-1-piperazinecarboxamide] | 105 to 108
8 | O=C(Nc1ccc([N+](=O)[O-])cc1)N1CCN(c2ncnc3cc4ccccc4cc23)CC1 [Compound 364, 4-(4-Benzo[g]quinazolinyl)-N-(4-nitrophenyl)-1-piperazinecarboxamide] | 272 to 275
9 | S=C(NCc1ccccc1)N1CCN(c2ncnc3cc4ccccc4cc23)CC1 [Compound 365, 4-(4-Benzo[g]quinazolinyl)-N-benzyl-1-piperazinethiocarboxamide] | 187 to 188
10 | O=C(Nc1ccc(Oc2ccccc2)cc1)N1CCN(c2ncnc3cc4c(cc23)OCO4)CC1 [Compound 367, 4-(6,7-Methylenedioxy-4-quinazolinyl)-N-(4-phenoxyphenyl)-1-piperazinecarboxamide] | 206 to 207
11 | O=C(Nc1ccc([N+](=O)[O-])cc1)N1CCN(c2ncnc3cc4c(cc23)OCO4)CC1 [Compound 368, 4-(6,7-Methylenedioxy-4-quinazolinyl)-N-(4-nitrophenyl)-1-piperazinecarboxamide] | 247 to 250
12 | N#Cc1ccc(NC(=O)N2CCN(c3ncnc4cc5c(cc34)OCO5)CC2)cc1 [Compound 369, N-(4-Cyanophenyl)-4-(6,7-methylenedioxy-4-quinazolinyl)-1-piperazinecarboxamide] | 220 to 222
13 | S=C(NCc1ccccc1)N1CCN(c2ncnc3cc4c(cc23)OCO4)CC1 [Compound 370, N-Benzyl-4-(6,7-methylenedioxy-4-quinazolinyl)-1-piperazinethiocarboxamide] | 176 to 177
14 | S=C(NCc1cccnc1)N1CCN(c2ncnc3cc4c(cc23)OCO4)CC1 [Compound 371, 4-(6,7-Methylenedioxy-4-quinazolinyl)-N-(3-picolyl)-1-piperazinethiocarboxamide] | 167 to 168
15 | O=C(Nc1ccc(Oc2ccccc2)cc1)N1CCN(c2ncnc3cc4c(cc23)OCCO4)CC1 [Compound 372, 4-(6,7-Ethylenedioxy-4-quinazolinyl)-N-(4-phenoxyphenyl)-1-piperazinecarboxamide] | 227 to 228
16 | N#Cc1ccc(NC(=O)N2CCN(c3ncnc4cc5c(cc34)OCCO5)CC2)cc1 [Compound 373, N-(4-Cyanophenyl)-4-(6,7-ethylenedioxy-4-quinazolinyl)-1-piperazinecarboxamide] | 246 to 247
17 | S=C(NCc1ccccc1)N1CCN(c2ncnc3cc4c(cc23)OCCO4)CC1 [Compound 374, N-Benzyl-4-(6,7-ethylenedioxy-4-quinazolinyl)-1-piperazinethiocarboxamide] | 103 to 105
18 | S=C(NCc1cccnc1)N1CCN(c2ncnc3cc4c(cc23)OCCO4)CC1 [Compound 375, 4-(6,7-Ethylenedioxy-4-quinazolinyl)-N-(3-picolyl)-1-piperazinethiocarboxamide] | 110 to 113
19 | CC(C)c1ccc(NC(=O)N2CCN(c3ncnc4c(Cl)cc(Cl)cc34)CC2)cc1 [Compound 376, 4-(6,8-Dichloro-4-quinazolinyl)-N-(4-isopropylphenyl)-1-piperazinecarboxamide] | 234 to 236
20 | O=C(Nc1ccc(Oc2ccccc2)cc1)N1CCN(c2ncnc3c(Cl)cc(Cl)cc23)CC1 [Compound 377, 4-(6,8-Dichloro-4-quinazolinyl)-N-(4-phenoxyphenyl)-1-piperazinecarboxamide] | 195 to 196
21 | CC(=O)c1ccc(NC(=O)N2CCN(c3ncnc4c(Cl)cc(Cl)cc34)CC2)cc1 [Compound 378, N-(4-Acetylphenyl)-4-(6,8-dichloro-4-quinazolinyl)-1-piperazinecarboxamide] | 187 to 188
22 | CC(C)c1ccc(NC(=O)N2CCN(c3ncnc4c(I)cc(I)cc34)CC2)cc1 [Compound 379, 4-(6,8-Diiodo-4-quinazolinyl)-N-(4-isopropylphenyl)-1-piperazinecarboxamide] | 267 to 269
23 | O=C(Nc1ccc(Oc2ccccc2)cc1)N1CCN(c2ncnc3c(I)cc(I)cc23)CC1 [Compound 380, 4-(6,8-Diiodo-4-quinazolinyl)-N-(4-phenoxyphenyl)-1-piperazinecarboxamide] | 242 to 244
24 | COc1cc(OC)c2ncnc(N3CCN(C(=O)Nc4ccc(Oc5ccccc5)cc4)CC3)c2c1 [Compound 381, 4-(6,8-Dimethoxy-4-quinazolinyl)-N-(4-phenoxyphenyl)-1-piperazinecarboxamide] | 109 to 110
25 | COc1ccc2c(N3CCN(C(=O)Nc4ccc(Oc5ccccc5)cc4)CC3)ncnc2c1OC [Compound 383, 4-(7,8-Dimethoxy-4-quinazolinyl)-N-(4-phenoxyphenyl)-1-piperazinecarboxamide] | 189 to 190
26 | COc1ccc2c(N3CCN(C(=S)NCc4ccccc4)CC3)ncnc2c1OC [Compound 384, N-Benzyl-4-(7,8-dimethoxy-4-quinazolinyl)-1-piperazinethiocarboxamide] | 158 to 160
27 | Cn1c(=O)n(C)c2cc3c(N4CCN(C(=O)Nc5ccc([N+](=O)[O-])cc5)CC4)ncnc3cc21 [Compound 386, 4-(1,3-Dihydro-1,3-dimethyl-2-oxo-2H-imidazo[4,5-g]quinazolin-8-yl)-N-(4-nitrophenyl)-1-piperazinecarboxamide] | 299 to 300

Continued, values first:

Row | melting point [°C] | SMILES
28 | 250 to 251 | CCn1c(=O)n(C)c2cc3c(N4CCN(C(=O)Nc5ccc(Oc6ccccc6)cc5)CC4)ncnc3cc21 [Compound 387, 4-(1,3-Dihydro-3-ethyl-1-methyl-2-oxo-2H-imidazo[4,5-g]quinazolin-8-yl)-N-(4-phenoxyphenyl)-1-piperazinecarboxamide]
29 | 207 to 208 | CCn1c(=O)n(C)c2cc3c(N4CCN(C(=S)NCc5ccccc5)CC4)ncnc3cc21 [Compound 388, N-Benzyl-4-(1,3-dihydro-3-ethyl-1-methyl-2-oxo-2H-imidazo[4,5-g]quinazolin-8-yl)-1-piperazinethiocarboxamide]
30 | 179 to 180 | CCCn1c(=O)n(CCC)c2cc3c(N4CCN(C(=O)Nc5ccc(Oc6ccccc6)cc5)CC4)ncnc3cc21 [Compound 389, 4-(1,3-Dihydro-1,3-dipropyl-2-oxo-2H-imidazo[4,5-g]quinazolin-8-yl)-N-(4-phenoxyphenyl)-1-piperazinecarboxamide]
31 | 134 to 136 | CCCCn1c(=O)n(CCCC)c2cc3c(N4CCN(C(=O)Nc5ccc(Oc6ccccc6)cc5)CC4)ncnc3cc21 [Compound 390, 4-(1,3-Dibutyl-1,3-dihydro-2-oxo-2H-imidazo[4,5-g]quinazolin-8-yl)-N-(4-phenoxyphenyl)-1-piperazinecarboxamide]
32 | 146 to 147 | COc1cc2nc(C)nc(N3CCN(C(=O)Nc4ccc(Oc5ccccc5)cc4)CC3)c2cc1OC [Compound 391, 4-(6,7-Dimethoxy-2-methyl-4-quinazolinyl)-N-(4-phenoxyphenyl)-1-piperazinecarboxamide]
33 | 178 to 179 | COc1cc2nc(Cl)nc(N3CCN(C(=O)Nc4ccc(Oc5ccccc5)cc4)CC3)c2cc1OC [Compound 392, 4-(2-Chloro-6,7-dimethoxy-4-quinazolinyl)-N-(4-phenoxyphenyl)-1-piperazinecarboxamide]
34 | 114 to 116 | COc1cc2nc(N3CCOCC3)nc(N3CCN(C(=O)Nc4ccc(Oc5ccccc5)cc4)CC3)c2cc1OC [Compound 393, 4-(6,7-Dimethoxy-2-morpholino-4-quinazolinyl)-N-(4-phenoxyphenyl)-1-piperazinecarboxamide]
35 | 145 to 146 | O=C(Nc1ccc(Oc2ccccc2)cc1)N1CCN(c2ccnc3ccccc23)CC1 [Compound 394, N-(4-Phenoxyphenyl)-4-(4-quinolyl)-1-piperazinecarboxamide]
36 | 75 to 79 | S=C(NCc1ccccc1)N1CCN(c2ccnc3ccccc23)CC1 [Compound 395, N-Benzyl-4-(4-quinolyl)-1-piperazinethiocarboxamide]
37 | 203 to 204 | O=C(Nc1ccc(Oc2ccccc2)cc1)N1CCN(c2cc(C(F)(F)F)nc3ccccc23)CC1 [Compound 397, N-(4-Phenoxyphenyl)-4-(2-trifluoromethyl-4-quinolyl)-1-piperazinecarboxamide]
38 | 158 to 159 | FC(F)(F)c1ccc2nccc(N3CCN(C(=S)NCc4ccccc4)CC3)c2c1 [Compound 398, N-Benzyl-4-(6-trifluoromethyl-4-quinolyl)-1-piperazinethiocarboxamide]
39 | 188 to 189 | O=C(Nc1ccc(Oc2ccccc2)cc1)N1CCN(c2ccnc3ccc(Cl)cc23)CC1 [Compound 399, 4-(6-Chloro-4-quinolyl)-N-(4-phenoxyphenyl)-1-piperazinecarboxamide]
